Molecular target: T1, NO synthase (Rattus norvegicus, UniProt P29476)
T1 construct: the tissue was broken down with a Polytron homogenizer for 1 min at 6,000 rpm; from tissue; host or cells: rat cerebellum, 20,000 g supernatant of homogenate
Assay: HTS NO synthase assay
Format: biochemical
Conditions: enzyme preparation from rat cerebelli, [3H]arginine substrate
Protocol: This assay allows the determination of the percentage inhibition of NO synthase by a compound of formula I according to the invention by measurement of the NO synthase activity in the presence of the compound. In this procedure, NO synthase is mixed together with radioactively labelled arginine and the particular compound of formula I under suitable conditions. After interruption of the NO formation reaction at a given point in time, the amount of unreacted arginine is determined directly or indirectly. […]
In this HTS NO synthase assay, radioactive arginine is used as the substrate. […] With the aid of this procedure, the arginine substrate which remains is bonded to the cation exchanger, while the radioactive citrulline formed enzymatically is washed out quantitatively. After drying of the filter MTP and addition of scintillation liquid, the bound arginine can be counted on a scintillation counter. An NO synthase reaction which has not been inhibited is reflected in a low radioactivity. […] That is to say a high radioactivity is found on the filter. […]
The plate was then dried for 1 hour at 60° C. in a drying cabinet. […] After a waiting time of 1 hour, the plate was measured on a β-counter.

Cc1ccn2c(N)c(-c3ccsc3)nc2c1 [Example 1, 7-Methyl-2-thiophen-3-yl-imidazo[1,2-a]pyridin-3-ylamine]
inhibition at 10 µM: 89%

From patent publication US20040122044A1, “Utilization of substituted imidazo [1,2-A]-pyridin-3-yl-amide and imidazo [1,2-A]-pyridin-3-yl-amine compounds in pharmaceutical formulations” (priority 2001, published 2004)
